Source: patent publication US5807535A, “Metal complexes of hydroxyaryl containing aminocarboxylic acid chelating agents” (Australian Nuclear Science & Technology Organisation, priority 1992, dated 1998)

Experiments:
[1] = Biodistribution of Copper-67 complex of (5); type: in vivo, Balb/c mice; conditions: for biodistribution L. Int. / biodistribution S. Int. / biodistribution blood / biodistribution bone / biodistribution brain / biodistribution heart / biodistribution kidney / biodistribution liver / biodistribution lung / biodistribution muscle / biodistribution pancreas / biodistribution skin / biodistribution spleen / biodistribution stomach / biodistribution tail / biodistribution urine: 67Cu, mice
Method: A typical procedure involved the dissolving Cu-67 20 μl of original stock in an acetate buffer (0.2 M; pH 4.5) to a total volume of 500 μl. To this solution was added 500 μl of the ligand (20 mg/ml) solution in acetate buffer. The mixture was then left to react at 37° C. for 20 minutes. ITLC confirmed the labelling was greater than >95%.
The biodistribution of the copper-67 complex of ligand (5) was evaluated in balb/c mice (5 animals per time point) at 1, 3, 5, 10, 30 minute time intervals.

[2] = Effect of pH on complexation of 99mTc with ligand (5); type: physicochemical
Method: Radiolabelling with ^99m Tc was investigated over a range of pHs (3.0-10.0) (described in Table B). To ligand (5) (1.0 ml:1 mg/ml) dissolved in appropriate buffer was added an excess of stannous chloride (20 μl:2 mg/ml) in 0.1 N HCl. To this mixture is added an appropriate activity of ^99m TcO4 (20 μl) eluted from a technetium generator.
All reactions were carried out at room temperature.
Percent complexation was monitored by ITLC-SG using two solvent systems. […]

[3] = Cu-67, over the 30 minute period

Nc1ccc(O)c(NC(=O)CN(CCN(CC(=O)O)CC(=O)Nc2cc(N)ccc2O)CC(=O)O)c1 [Compound 5]
biodistribution L. Int. ([1]; 1 min): 0.35 % Injected dose
biodistribution S. Int. ([1]; 1 min): 0.50 % Injected dose
biodistribution blood ([1]; 1 min): 5.86 % Injected dose
biodistribution bone ([1]; 1 min): 5.46 % Injected dose
biodistribution brain ([1]; 1 min): 0.23 % Injected dose
biodistribution heart ([1]; 1 min): 0.27 % Injected dose
biodistribution kidney ([1]; 1 min): 8.35 % Injected dose
biodistribution liver ([1]; 1 min): 5.71 % Injected dose
biodistribution lung ([1]; 1 min): 0.85 % Injected dose
biodistribution muscle ([1]; 1 min): 13.69 % Injected dose
biodistribution pancreas ([1]; 1 min): 0.20 % Injected dose
biodistribution skin ([1]; 1 min): 9.61 % Injected dose
biodistribution spleen ([1]; 1 min): 0.18 % Injected dose
biodistribution stomach ([1]; 1 min): 0.52 % Injected dose
biodistribution tail ([1]; 1 min): 8.27 % Injected dose
biodistribution urine ([1]; 1 min): 0.35 % Injected dose
biodistribution L. Int. ([1]; 3 min): 0.75 % Injected dose
biodistribution S. Int. ([1]; 3 min): 1.10 % Injected dose
biodistribution blood ([1]; 3 min): 4.76 % Injected dose
biodistribution bone ([1]; 3 min): 3.35 % Injected dose
biodistribution brain ([1]; 3 min): 0.22 % Injected dose
biodistribution heart ([1]; 3 min): 0.28 % Injected dose
biodistribution kidney ([1]; 3 min): 5.65 % Injected dose
biodistribution liver ([1]; 3 min): 8.48 % Injected dose
biodistribution lung ([1]; 3 min): 1.20 % Injected dose
biodistribution muscle ([1]; 3 min): 18.00 % Injected dose
biodistribution pancreas ([1]; 3 min): 0.11 % Injected dose
biodistribution skin ([1]; 3 min): 19.21 % Injected dose
biodistribution spleen ([1]; 3 min): 0.19 % Injected dose
biodistribution stomach ([1]; 3 min): 0.93 % Injected dose
biodistribution tail ([1]; 3 min): 5.19 % Injected dose
biodistribution urine ([1]; 3 min): 1.98 % Injected dose
biodistribution L. Int. ([1]; 5 min): 0.54 % Injected dose
biodistribution S. Int. ([1]; 5 min): 1.08 % Injected dose
biodistribution blood ([1]; 5 min): 4.05 % Injected dose
biodistribution bone ([1]; 5 min): 2.74 % Injected dose
biodistribution brain ([1]; 5 min): 0.23 % Injected dose
biodistribution heart ([1]; 5 min): 0.19 % Injected dose
biodistribution kidney ([1]; 5 min): 4.99 % Injected dose
biodistribution liver ([1]; 5 min): 9.04 % Injected dose
biodistribution lung ([1]; 5 min): 1.10 % Injected dose
biodistribution muscle ([1]; 5 min): 11.95 % Injected dose
biodistribution pancreas ([1]; 5 min): 0.12 % Injected dose
biodistribution skin ([1]; 5 min): 16.23 % Injected dose
biodistribution spleen ([1]; 5 min): 0.16 % Injected dose
biodistribution stomach ([1]; 5 min): 0.87 % Injected dose
biodistribution tail ([1]; 5 min): 5.36 % Injected dose
biodistribution urine ([1]; 5 min): 3.72 % Injected dose
biodistribution L. Int. ([1]; 10 min): 0.79 % Injected dose
biodistribution S. Int. ([1]; 10 min): 0.90 % Injected dose
biodistribution blood ([1]; 10 min): 2.33 % Injected dose
biodistribution brain ([1]; 10 min): 0.19 % Injected dose
biodistribution heart ([1]; 10 min): 0.18 % Injected dose
biodistribution kidney ([1]; 10 min): 4.48 % Injected dose
biodistribution liver ([1]; 10 min): 11.79 % Injected dose
biodistribution lung ([1]; 10 min): 1.20 % Injected dose
biodistribution muscle ([1]; 10 min): 8.38 % Injected dose
biodistribution pancreas ([1]; 10 min): 0.34 % Injected dose
biodistribution skin ([1]; 10 min): 16.46 % Injected dose
biodistribution spleen ([1]; 10 min): 0.16 % Injected dose
biodistribution stomach ([1]; 10 min): 0.80 % Injected dose
biodistribution tail ([1]; 10 min): 3.45 % Injected dose
biodistribution urine ([1]; 10 min): 4.71 % Injected dose
biodistribution L. Int. ([1]; 30 min): 0.31 % Injected dose
biodistribution S. Int. ([1]; 30 min): 0.71 % Injected dose
biodistribution blood ([1]; 30 min): 2.12 % Injected dose
biodistribution bone ([1]; 30 min): 2.05 % Injected dose
biodistribution brain ([1]; 30 min): 0.54 % Injected dose
biodistribution heart ([1]; 30 min): 0.20 % Injected dose
biodistribution kidney ([1]; 30 min): 3.38 % Injected dose
biodistribution liver ([1]; 30 min): 17.10 % Injected dose
biodistribution lung ([1]; 30 min): 1.29 % Injected dose
biodistribution muscle ([1]; 30 min): 7.45 % Injected dose
biodistribution pancreas ([1]; 30 min): 0.34 % Injected dose
biodistribution skin ([1]; 30 min): 14.14 % Injected dose
biodistribution spleen ([1]; 30 min): 0.19 % Injected dose
biodistribution stomach ([1]; 30 min): 1.22 % Injected dose
biodistribution tail ([1]; 30 min): 1.51 % Injected dose
biodistribution urine ([1]; 30 min): 1.33 % Injected dose
clearance from the kidneys, blood and urine [1, 3]: clears from the kidneys, blood and urine over the 30 minute period
uptake in the liver [1, 3]: active uptake of the complex in the liver
complexation ([2]; 99mTc, pH 10.0): poor
stability of product ([2]; 99mTc, pH 10.0): unstable
stability of final product (stable for upto) ([2]; 99mTc, pH range 3.0-9.0): ≤ 2 h
optimum pH of complexation ([2]; 99mTc, room temperature): 3.0-4.0 pH
Percent 99mTc complexed ([2]; pH 3, 1 min): 89%
Percent 99mTc complexed ([2]; pH 3, 3 min): 93%
Percent 99mTc complexed ([2]; pH 3, 5 min): 90%
Percent 99mTc complexed ([2]; pH 3, 10 min): 91%
Percent 99mTc complexed ([2]; pH 3, 15 min): 90%
Percent 99mTc complexed ([2]; pH 3, 30 min): 92%
Percent 99mTc complexed ([2]; pH 3, 1 h): 92%
Percent 99mTc complexed ([2]; pH 3, 2 h): 94%
Percent 99mTc complexed ([2]; pH 4, 1 min): 94%
Percent 99mTc complexed ([2]; pH 4, 3 min): 97%
Percent 99mTc complexed ([2]; pH 4, 5 min): 92%
Percent 99mTc complexed ([2]; pH 4, 10 min): 94%
Percent 99mTc complexed ([2]; pH 4, 15 min): 96%
Percent 99mTc complexed ([2]; pH 4, 30 min): 91%
Percent 99mTc complexed ([2]; pH 4, 1 h): 100%
Percent 99mTc complexed ([2]; pH 4, 2 h): 100%
Percent 99mTc complexed ([2]; pH 5, 1 min): 84%
Percent 99mTc complexed ([2]; pH 5, 3 min): 83%
Percent 99mTc complexed ([2]; pH 5, 5 min): 91%
Percent 99mTc complexed ([2]; pH 5, 10 min): 83%
Percent 99mTc complexed ([2]; pH 5, 15 min): 81%
Percent 99mTc complexed ([2]; pH 5, 30 min): 71%
Percent 99mTc complexed ([2]; pH 5, 1 h): 85%
Percent 99mTc complexed ([2]; pH 5, 2 h): 88%
Percent 99mTc complexed ([2]; pH 6, 1 min): 80%
Percent 99mTc complexed ([2]; pH 6, 3 min): 80%
Percent 99mTc complexed ([2]; pH 6, 5 min): 83%
Percent 99mTc complexed ([2]; pH 6, 10 min): 80%
Percent 99mTc complexed ([2]; pH 6, 15 min): 82%
Percent 99mTc complexed ([2]; pH 6, 30 min): 90%
Percent 99mTc complexed ([2]; pH 6, 1 h): 85%
Percent 99mTc complexed ([2]; pH 6, 2 h): 91%
Percent 99mTc complexed ([2]; pH 7, 1 min): 73%
Percent 99mTc complexed ([2]; pH 7, 3 min): 83%
Percent 99mTc complexed ([2]; pH 7, 5 min): 81%
Percent 99mTc complexed ([2]; pH 7, 10 min): 74%
Percent 99mTc complexed ([2]; pH 7, 15 min): 87%
Percent 99mTc complexed ([2]; pH 7, 30 min): 80%
Percent 99mTc complexed ([2]; pH 7, 1 h): 83%
Percent 99mTc complexed ([2]; pH 7, 2 h): 52%
Percent 99mTc complexed ([2]; pH 8, 1 min): 76%
Percent 99mTc complexed ([2]; pH 8, 3 min): 88%
Percent 99mTc complexed ([2]; pH 8, 5 min): 81%
Percent 99mTc complexed ([2]; pH 8, 10 min): 83%
Percent 99mTc complexed ([2]; pH 8, 15 min): 87%
Percent 99mTc complexed ([2]; pH 8, 30 min): 85%
Percent 99mTc complexed ([2]; pH 8, 1 h): 77%
Percent 99mTc complexed ([2]; pH 8, 2 h): 81%
Percent 99mTc complexed ([2]; pH 9, 1 min): 90%
Percent 99mTc complexed ([2]; pH 9, 3 min): 100%
Percent 99mTc complexed ([2]; pH 9, 5 min): 94%
Percent 99mTc complexed ([2]; pH 9, 10 min): 86%
Percent 99mTc complexed ([2]; pH 9, 15 min): 100%
Percent 99mTc complexed ([2]; pH 9, 30 min): 83%
Percent 99mTc complexed ([2]; pH 9, 1 h): 85%
Percent 99mTc complexed ([2]; pH 9, 2 h): 74%
Percent 99mTc complexed ([2]; pH 10, 1 min): 15%
Percent 99mTc complexed ([2]; pH 10, 3 min): 16%
Percent 99mTc complexed ([2]; pH 10, 5 min): 11%
Percent 99mTc complexed ([2]; pH 10, 10 min): 13%
Percent 99mTc complexed ([2]; pH 10, 15 min): 9%
Percent 99mTc complexed ([2]; pH 10, 1 h): 8%
Percent 99mTc complexed ([2]; pH 10, 2 h): 8%
